Legend:
JNK = assay: Western blot of phosphorylated and total JNK in U87 cells; assay type: cell-based, Human; conditions: 25 μM, 10, 30, 60 and 90 min
Protocol: (§1) After treatment with bepridil for 0, 30, 60, and 90 min, cells were collected and lysed in RIPA buffer (Beyotime, Nanjing, China) supplemented with protease inhibitor (Beyotime). The total protein concentration of each sample was determined using the BCA Protein Assay Kit (Sangon Biotech, Shanghai, China). Equal protein extracts (45‐μg protein per lane) were separated by SDS‐PAGE and electrophoretically transferred to PVDF membranes (Millipore, Bedford, MA, USA). Then, the membranes were incubated with anti‐phosphorylated and total http://www.guidetopharmacology.org/GRAC/FamilyDisplayForward?familyId=514, http://www.guidetopharmacology.org/GRAC/FamilyDisplayForward?familyId=518, and http://www.guidetopharmacology.org/GRAC/FamilyDisplayForward?familyId=519 antibodies (1:1,000; Cell Signaling Technology) at 4°C overnight, followed by incubation with IRDye 680LT fluorescent secondary antibody (LI‐COR Biosciences, Lincoln, NE, USA). Proteins were visualized using the Odyssey Fc Imaging System (LI‐COR Biosciences, Lincoln, NE, USA). Mouse α‐tubulin antibody was used as protein loading controls. The immuno‐related procedures used comply with the recommendations made by the British Journal of Pharmacology (Alexander et al., 2018).

p38‐MAPK = assay: Western blot of phosphorylated and total p38-MAPK in U87 cells; assay type: cell-based, Human; conditions: 25 μM, 10, 30, 60 and 90 min
Protocol: as §1

[1] = design: method as in Lipsanen et al., 2013; Mitterreiter et al., 2010; conditions: oral administration or intraperitoneal injection at 50 mg·kg^−1 body weight, two animal studies; ref Lipsanen et al., 2013; Mitterreiter et al., 2010; cited from earlier work
ERK = assay: Western blot of phosphorylated and total ERK in U87 cells; assay type: cell-based, Human; conditions: 25 μM, 10, 30, 60 and 90 min
Protocol: as §1, with “The” for “After treatment with bepridil for 0, 30, 60, and 90 min, cells were collected and lysed in RIPA buffer (Beyotime, Nanjing, China) supplemented with protease inhibitor (Beyotime). The”

In the case of CC(C)COCC(CN(Cc1ccccc1)c1ccccc1)N1CCCC1 (stereo not shown) [Bepridil, N‐benzyl‐N‐(3‐isobutoxy‐2‐pyrrolidin‐1‐yl‐propyl)aniline], the “Effect on JNK activity” value (JNK) is listed as “activated”, the “Effect on p38-MAPK activity” value (p38‐MAPK) is listed as “activated” and the “Penetration of the blood–brain barrier” value [1] is listed as “able to penetrate the blood–brain barrier (BBB) and reach the brain”. For the same compound, the “Effect on ERK activity” value (ERK) was “not affected”.

Reference: PMC6609550, “Blockade of the forward Na^+/Ca^2+ exchanger suppresses the growth of glioblastoma cells through Ca^2+‐mediated cell death” (British Journal of Pharmacology, 2019)
